Assay results reported in patent US20060014717A1, “Therapeutic compositions for use in prophylaxis or treatment of diarrheas” (priority 2002, published 2006).

Legend:
diarrheagenic E. coli = test: Inhibition with soluble oligosaccharides in the chromatogram binding assay; parameters: species or system Escherichia coli
Experimental: (§1) Glycosphingolipid Binding Assays—Binding of ^35S-labeled bacteria to glycosphingolipids on thin-layer chromatograms was done as reported (7). Dried chromatograms were dipped for 1 min in diethylether/n-hexane (1:5, by volume) containing 0.5% (w/v) polyisobutylmethacrylate (Aldrich Chem. Comp. Inc., Milwaukee, Wis.). After drying, the chromatograms were soaked in PBS containing 2% bovine serum albumin (w/v), 0.1% NaN3 (w/v) and 0.1% Tween 20 (by volume) for 2 h at room temperature. The chromatograms were subsequentely covered with radiolabeled bacteria diluted in PBS (2-5×10^6 cpm/ml). Incubation was done for 2 h at room temperature, followed by repeated washings with PBS. The chromatograms were thereafter autoradiographed using XAR-5 X-ray films (Eastman Kodak, Rochester, N.Y.) for 12 h. Autoradiograms were replicated using a CCD camera (Dage-MTI, Inc., Michigan City, Ind.), and analysis of the images was performed using the public domain NIH Image program (developed at the U.S. National Institutes of Health, and available at http://rsb.info.nih.eov/nih-imaee/).
The final concentrations of the inhibiting oligosaccharides on the TLC-plate were 0.3 mM. […] Thereafter the chromatogram binding assay was performed as described above.

[1] = tested on: diarrheagenic Escherichia coli CCUG 38068 (EPEC); test: Chromatogram binding assay of 35S-labeled bacteria to glycosphingolipids on thin-layer plates; settings: thin-layer chromatograms, TLC overlay
Experimental: (§2) Culture Conditions and Labeling—The E. coli strains were cultured on Luria-agar with the addition of 10 μl ^35S-methionine (400 tici; Amersham Pharmacia Biotech, U.K.) at 37° C. for 12 h. The bacteria were harvested by scraping, washed three times with phosphate-buffered saline (PBS), pH 7.3, and thereafter resuspended in PBS (with or without 1% mannose (w/v)) to 1×10^8 CFU/ml. The specific activities of the suspensions were approximately 1 cpm per 100 bacteria.
(§3) Thin-Layer Chromatography—Thin-layer chromatography of glycosphingolipids was performed on glass- or aluminum-backed silica gel 60 HPTLC plates (Merck, Darmstadt, Germany), using chloroform/methanol/water 60:35:8 (by volume) as solvent system. Chemical detection was done with anisaldehyde (6).
as §1

[2] = tested on: diarrheagenic Escherichia coli CCUG 38077 (EAEC); test: as above; settings: thin-layer chromatograms, TLC overlay
Experimental: as §2, §3, §1

EPEC strain = settings: listed in decreasing order of activity; cited from earlier work
[3] = tested on: gastric and enterohepatic Helicobacter spp.; test: Binding of Helicobacter spp. to glycosphingolipids (statements for several species); settings: both gastric and enterohepatic Helicobacter spp. tested
Source text: (§4) Gastric species examined in the present study included, Helicobacter mustelae ferret isolates from the National Collection of Type Cultures (NCTC) and the Culture Collection of the University of Gothenberg (CCUG), NCTC 12198/CCUG 25175 (equivalent strains from different sources tested), CCUG 23950 and CCUG 23951, Helicobacterfelis CCUG 28539 from a cat, in addition, H. pylori strains CCUG 17874, CCUG 17875 and a clinical isolate 119/95 were used. Enterohepatic helicobacters of animal origin were purchased from the CCUG including, Helicobacter canes CCUG 33835, Helicobacter bilis CCUG 38995, Helicobacter hepaticus CCUG 33637, and Helicobacterfennelliae (CCUG 18820).
(§5) Binding of Helicobacter spp. to glycosphingolipids, both acid and non-acidfractions. Glycosphingolipids were isolated by standard procedures (Karlsson, 1987). The identity of the purified glycosphingolipids was confirmed by mass spectrometry (Samuelsson et al., 1990), proton NMR spectroscopy (Koerner et al., 1983) and degradation studies (Stellner et al., 1973; Yang and Hakomori, 1971).
(§6) Mixtures of glycosphingolipids (40 μg/lane) or pure compounds (2 μg/lane) were subsequently separated using thin-layer chromatography (TLC) on glass- or aluminum-backed silica gel 60 HPTLC plates (Merck, Darmstadt, Germany), with chloroform/methanot/water (60:35:8, by volume) as solvent system. Chemical detection was accomplished by anisaldehyde (Waldi, 1962). Helicobacter spp. were subjected to ^35S-labeling (Angstrom et al., 1998) and suspended in PBS (10^8 CFU/ml) with a specific activity of approximately 1 cpm per 100 organisms. Binding of the labeled-bacteria to glycosphingolipids separated by TLC was achieved using a bacterial-overlay technique coupled with autoradiography detection using XAR-5 X-ray films (Eastman Kodak, Rochester, N.Y.) as previously described (Hansson et al., 1985).

H. pylori CCUG 17874 = test: Binding of 35S-labeled Helicobacter species to glycosphingolipids on thin-layer chromatograms; parameters: species or system Helicobacter pylori; key: + denotes a significant darkening on the autoradiogram when 2 μg (or 40 μg in the case of the last sample) was applied to TLC plates; − denotes no binding; settings: 2 μg (40 μg for the glycosphingolipid fraction) on TLC plates
Source text: as §4, §5, §6

H. pylori CCUG 17875 = test: as above; parameters: species or system Helicobacter pylori; key: + denotes a significant darkening on the autoradiogram when 2 μg (or 40 μg in the case of the last sample) was applied to TLC plates; − denotes no binding; settings: 2 μg (40 μg for the glycosphingolipid fraction) on TLC plates
Source text: as §4, §5, §6

H. felis CCUG 28539 = test: as above; parameters: species or system Helicobacter felis; key: + denotes a significant darkening on the autoradiogram when 2 μg (or 40 μg in the case of the last sample) was applied to TLC plates; − denotes no binding; settings: 2 μg (40 μg for the glycosphingolipid fraction) on TLC plates
Source text: as §4, §5, §6

H. canis CCUG 33835 = test: as above; parameters: species or system Helicobacter canis; key: + denotes a significant darkening on the autoradiogram when 2 μg (or 40 μg in the case of the last sample) was applied to TLC plates; − denotes no binding; settings: 2 μg (40 μg for the glycosphingolipid fraction) on TLC plates
Source text: as §4, §5, §6

H. hepaticus CCUG 33637 = test: as above; parameters: species or system Helicobacter hepaticus; key: + denotes a significant darkening on the autoradiogram when 2 μg (or 40 μg in the case of the last sample) was applied to TLC plates; − denotes no binding; settings: 2 μg (40 μg for the glycosphingolipid fraction) on TLC plates
Source text: as §4, §5, §6

H. mustelae 25715 = test: as above; parameters: species or system Helicobacter mustelae; key: + denotes a significant darkening on the autoradiogram when 2 μg (or 40 μg in the case of the last sample) was applied to TLC plates; − denotes no binding; settings: 2 μg (40 μg for the glycosphingolipid fraction) on TLC plates
Source text: as §4, §5, §6

[4] = tested on: H. mustelae CCUG 23950 & 23951; test: as above; parameters: species or system Helicobacter mustelae; key: + denotes a significant darkening on the autoradiogram when 2 μg (or 40 μg in the case of the last sample) was applied to TLC plates; − denotes no binding; settings: 2 μg (40 μg for the glycosphingolipid fraction) on TLC plates
Source text: as §4, §5, §6

H. bilis CCUG 38995 = test: as above; parameters: species or system Helicobacter bilis; key: + denotes a significant darkening on the autoradiogram when 2 μg (or 40 μg in the case of the last sample) was applied to TLC plates; − denotes no binding; settings: 2 μg (40 μg for the glycosphingolipid fraction) on TLC plates
Source text: as §4, §5, §6

With `CC(=O)N[C@H]1[C@H](O[C@H]2[C@@H](O)[C@@H](CO)O[C@@H](O[C@H]3[C@H](O)[C@@H](O)C(O)O[C@@H]3CO)[C@@H]2O)O[C@H](CO)[C@@H](O[C@@H]2O[C@H](CO)[C@H](O)[C@H](O)[C@H]2O)[C@@H]1O` (mixture of isomers) [Lacto-N-neotetraose, Galβ4GlcNAcβ3Galβ4Glc] the “Inhibition of binding to neolacto glycolipid” value (diarrheagenic E. coli; 0.3 mM final concentration) was “inhibited binding”.
In the case of `CC(=O)N[C@H]1C(O)O[C@H](CO)[C@H](O)[C@@H]1O[C@@H]1O[C@H](CO)[C@H](O)[C@H](O)[C@H]1O` (stereo partly shown) [Galβ3GalNAc], the “Activity as monovalent inhibitor against the Ganglio-receptor glycolipid” value (diarrheagenic E. coli; 0.3 mM concentration) is reported as “not active”.
In the case of `CCCCCCCCCCCCCCCCc1ccc(NC[C@H](O)[C@@H](O)[C@H](O[C@@H]2O[C@H](CO[C@@H]3O[C@H](CO)[C@@H](O)[C@H](O)[C@H]3NC(C)=O)[C@H](O)[C@H](O[C@@H]3O[C@H](CO)[C@@H](O)[C@H](O[C@@H]4O[C@H](CO)[C@H](O)[C@H](O)[C@H]4O)[C@H]3NC(C)=O)[C@H]2O)[C@H](O)CO)cc1` [Galβ3GlcNAcβ3(GlcNAcβ6)Galβ4Glc(red)-HDA], the “Binding of strain CCUG 38068 to glycosphingolipids and neoglycolipids, in words” value [1] is reported as “much weaker or non-existent binding activities” and the “Binding of strain CCUG 38077 to glycosphingolipids and neoglycolipids, in words” value [2] is reported as “much weaker or non-existent binding activities”.
With `CCCCCCCCCCCCCCCCc1ccc(NC[C@H](O)[C@@H](O)[C@H](O[C@@H]2O[C@H](CO)[C@H](O)[C@H](O[C@@H]3O[C@H](CO)[C@@H](O[C@@H]4O[C@H](CO)[C@H](O)[C@H](O[C@@H]5O[C@H](CO)[C@@H](O)[C@H](O)[C@H]5NC(C)=O)[C@H]4O)[C@H](O)[C@H]3NC(C)=O)[C@H]2O)[C@H](O)CO)cc1` [GlcNAcβ3Galβ4GlcNAcβ3Galβ4Glc(red)-HDA] the “Binding of strain CCUG 38068 to glycosphingolipids and neoglycolipids, in words” value [1] was “had binding activity” and the “Binding of strain CCUG 38077 to glycosphingolipids and neoglycolipids, in words” value [2] was “had binding activity”.
With `CCCCCCCCCCCCCCCCc1ccc(NC[C@H](O)[C@@H](O)[C@H](O[C@@H]2O[C@H](CO[C@@H]3O[C@H](CO)[C@@H](O[C@@H]4O[C@H](CO)[C@H](O)[C@H](O[C@@H]5O[C@H](CO)[C@@H](O)[C@H](O)[C@H]5NC(C)=O)[C@H]4O)[C@H](O)[C@H]3NC(C)=O)[C@H](O)[C@H](O)[C@H]2O)[C@H](O)CO)cc1` [GlcNAcβ3Galβ4GlcNAcβ6Galβ4Glc(red)HDA, GlcNAcβ3Galβ4GlcNAcβ6Galβ4Glc(red)-HDA] the “Binding of strain CCUG 38068 to glycosphingolipids and neoglycolipids, in words” value [1] was “much weaker or non-existent binding activities” and the “Binding of strain CCUG 38077 to glycosphingolipids and neoglycolipids, in words” value [2] was “much weaker or non-existent binding activities”.
In the case of `CC(=O)N[C@H]1[C@H](O[C@H]2[C@@H](O)[C@@H](CO)O[C@@H](O[C@H]3[C@H](O)[C@@H](O)C(O)O[C@@H]3CO)[C@@H]2O)O[C@H](CO)[C@@H](O)[C@@H]1O[C@@H]1O[C@H](CO)[C@H](O)[C@H](O)[C@H]1O` (stereo partly shown) [Lacto-N-tetraose, Galβ3GlcNAcβ3Galβ4Glc], the “Inhibition of binding to lactotetraosylceramide” value (diarrheagenic E. coli; lowest densities of glycolipids) is listed as “able to inhibit” and the “Binding of an EPEC strain to commercial glycolipids” value (“Binding of an EPEC strain” for short) (EPEC strain) is listed as “observed to bind”.
For `CCCCCCCCCCCCCCCCc1ccc(NC[C@@H](O)[C@@H](O[C@H]2O[C@H](CO)[C@@H](O)[C@H](O)[C@@H]2O)[C@H](O)[C@H](O)CO[C@H]2O[C@H](CO)[C@@H](O)[C@H](O)[C@@H]2O)cc1` [Manα3(Manα6)Man(red)-HDA], the “Binding of strain CCUG 38068 to glycosphingolipids and neoglycolipids, in words” value [1] was “had binding activity”, the “Binding of strain CCUG 38068 to glycosphingolipids and neoglycolipids, in words” value ([1]; listed as Manα3(Manα6)Man) was “bind” and the “Binding of strain CCUG 38077 to glycosphingolipids and neoglycolipids, in words” value [2] was “had binding activity”. For the same compound, the “Binding of strain CCUG 38077 to glycosphingolipids and neoglycolipids, in words” value ([2]; listed as Manα3(Manα6)Man) was “bind”.
In the case of “GalNAcα3GalNAcβ3Galα4Galβ4Glcβ1Cer [No. 14]”, the “Binding of an EPEC strain” value (EPEC strain) is given as “negative”.
In the case of GalNAcβ4Galβ4Glcβ1Cer [No. 10], the “Binding of an EPEC strain” value (EPEC strain) is given as “observed to bind”.
In the case of Galα4Galβ4Glcβ1Cer [No. 8], the “Binding of an EPEC strain” value (EPEC strain) is listed as “negative”.
With Galβ3GlcNAcβ3Galβ4Glcβ1Cer [No. 23] the “Binding of Helicobacter spp. to glycosphingolipid, in words” value [3] was “capable of binding”, the “Binding of glycosphingolipids to H.pylori 17874” value (H. pylori CCUG 17874) was “+” and the “Binding of glycosphingolipids to H.pylori 17875” value (H. pylori CCUG 17875) was “+”. For the same compound, the “Binding of glycosphingolipids to H.felis 28539” value (H. felis CCUG 28539) was “+”, the “Binding of glycosphingolipids to H.canis 33835” value (H. canis CCUG 33835) was “+” and the “Binding of glycosphingolipids to H.hepaticus 33637” value (H. hepaticus CCUG 33637) was “+”. The “Binding of glycosphingolipids to H.mustelae 25715” value (H. mustelae 25715) was “+”, the “Binding of glycosphingolipids to H.mustelae 23950 & 23951” value [4] was “+” and the “Binding of glycosphingolipids to H.bilis 38995” value (H. bilis CCUG 38995) was “+”.
For “NeuGcα3Galβ4GlcNAcβ3Galβ4GlcNAcβ3Galβ4Glcβ1Cer [No. 36]”, the “Binding of glycosphingolipids to H.pylori 17874” value (H. pylori CCUG 17874) was “+”, the “Binding of glycosphingolipids to H.pylori 17875” value (H. pylori CCUG 17875) was “+” and the “Binding of glycosphingolipids to H.felis 28539” value (H. felis CCUG 28539) was “+”. The “Binding of glycosphingolipids to H.canis 33835” value (H. canis CCUG 33835) was “+”, the “Binding of glycosphingolipids to H.hepaticus 33637” value (H. hepaticus CCUG 33637) was “+” and the “Binding of glycosphingolipids to H.mustelae 25715” value (H. mustelae 25715) was “+”. The “Binding of glycosphingolipids to H.mustelae 23950 & 23951” value [4] was “+” and the “Binding of glycosphingolipids to H.bilis 38995” value (H. bilis CCUG 38995) was “+”.
